CN1C(C(=O)Nc2ccccn2)=C(O)c2ccccc2S1(=O)=O
solubility (mole fraction)
Conditions	293.2 K	298.2 K	303.2 K	308.2 K	313.2 K
in ethanol	0.000103	0.000177	0.000334	0.000553	0.00078
in ethyl acetate	0.00426	0.00497	0.0057	0.00661	0.00741

Source: BigSolDB 2.1
